Here are results for eleven compounds from patent publication US12534465B2, “5H-pyrrolo[3,2-d]pyrimidine-2,4-diamino compounds and antibody conjugates thereof” (SUTRO BIOPHARMA, INC., priority 2019, dated 2026).

By EC50 is commonly meant the midpoint of the concentration-response curve. A higher EC50 goes with weaker potency.

Common to all, as to type: cell-based
For one experiment, the target named is T1, human TLR8 (Homo sapiens, UniProt Q9NR97).
T1 construct: host or cells: HEK293
T1 sequence (Q9NR97 27-1041): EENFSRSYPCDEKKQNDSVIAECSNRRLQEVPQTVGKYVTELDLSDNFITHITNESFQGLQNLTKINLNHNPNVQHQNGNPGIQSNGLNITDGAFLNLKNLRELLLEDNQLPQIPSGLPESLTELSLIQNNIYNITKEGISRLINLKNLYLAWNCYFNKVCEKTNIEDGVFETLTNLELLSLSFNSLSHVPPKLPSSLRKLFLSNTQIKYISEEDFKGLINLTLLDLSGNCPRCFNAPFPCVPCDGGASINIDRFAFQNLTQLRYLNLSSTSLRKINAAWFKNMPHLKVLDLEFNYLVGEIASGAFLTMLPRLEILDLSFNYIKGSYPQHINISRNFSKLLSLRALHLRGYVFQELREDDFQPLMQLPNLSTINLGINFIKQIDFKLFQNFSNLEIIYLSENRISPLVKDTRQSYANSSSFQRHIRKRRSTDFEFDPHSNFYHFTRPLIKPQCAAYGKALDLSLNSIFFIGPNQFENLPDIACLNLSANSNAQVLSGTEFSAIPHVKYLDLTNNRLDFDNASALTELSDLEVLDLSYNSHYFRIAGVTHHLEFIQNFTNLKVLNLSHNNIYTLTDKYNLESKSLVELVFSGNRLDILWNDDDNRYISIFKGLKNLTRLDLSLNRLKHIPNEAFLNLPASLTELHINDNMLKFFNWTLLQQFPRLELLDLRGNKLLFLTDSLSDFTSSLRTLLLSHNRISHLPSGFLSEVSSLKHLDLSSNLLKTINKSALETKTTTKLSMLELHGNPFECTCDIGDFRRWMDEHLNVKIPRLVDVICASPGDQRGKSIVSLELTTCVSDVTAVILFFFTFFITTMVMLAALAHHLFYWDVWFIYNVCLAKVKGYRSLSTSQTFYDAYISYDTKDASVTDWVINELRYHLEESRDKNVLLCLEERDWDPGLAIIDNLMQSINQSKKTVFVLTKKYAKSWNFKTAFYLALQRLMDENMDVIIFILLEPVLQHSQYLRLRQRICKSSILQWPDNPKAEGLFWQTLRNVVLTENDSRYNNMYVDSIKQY
Briefly: HEK293-humanTLR8 SEAP reporter assay (Example 8). Particulars: HEK293-hTLR8 SEAP reporter cells, 24 hrs. How it is done: (§1) In this example, the in vitro activity of compounds to activate human TLR7 (or human TLR8 or mouse TLR7) pathway was evaluated on HEK293 reporter cells transfected with human TLR7 (or human TLR8 or mouse TLR7) and an inducible SEAP (secreted embryonic alkaline phosphatase) reporter gene. The SEAP reporter gene is placed under the control of the IFN-β minimal promoter fused to five NF-κB and AP-1-binding sites. Stimulation with a TLR7 agonist activates NF-κB and AP-1 which induces the production of SEAP. Levels of SEAP were determined by HEK-Blue Detection medium.
(§2) The in vitro activity of compounds on TLR7 (human and mouse) and TLR8 (human only) reporter cell lines was assessed as follows. 5-(2-methoxy-4-(piperazin-1-ylmethyl)benzyl)-N4-pentyl-5H-pyrrolo[3,2-d]pyrimidine-2,4-diamine (Compound 1) is a compound used for comparison and has the structure shown below:
(§3) HEK293-humanTLR7 (hTLR7), HEK293-mouseTLR7 (mTLR7) and HEK293-humanTLR8 (hTLR8) reporter cell lines were purchased from Invivogen and cell lines were maintained in the manufacturer's recommended culture medium with required supplemental antibiotics. On the day of assay, the cells were harvested with Accutase and counted by the Vi-CELL Cell Viability Analyzers. Cells were resuspended in HEK blue detection medium and a total of 10,000 cells were seeded in each well of a 384-well flat bottom plate. Serial dilutions of test compounds (1:4 serial dilution starting from 5 μM) were added into treatment wells and assay plates were cultured at 37° C. in a CO2 incubator for 24 hrs. The plates were then read by spectrophotometry at 640 nm. Data was fitted with non-linear regression analysis, using a log(inhibitor) vs. response-variable slope, 3-parameter fit with GraphPad Prism. There result was reported in Table 1 as EC50 (the midpoint of the curve, or concentration at which 50% of the maximum effect was observed).
Background: A reporter such as luciferase makes a cellular process visible.

The target in another experiment is T2, mouse TLR7 (Mus musculus, UniProt P58681).
T2 construct: host or cells: HEK293
T2 sequence (P58681 27-1050): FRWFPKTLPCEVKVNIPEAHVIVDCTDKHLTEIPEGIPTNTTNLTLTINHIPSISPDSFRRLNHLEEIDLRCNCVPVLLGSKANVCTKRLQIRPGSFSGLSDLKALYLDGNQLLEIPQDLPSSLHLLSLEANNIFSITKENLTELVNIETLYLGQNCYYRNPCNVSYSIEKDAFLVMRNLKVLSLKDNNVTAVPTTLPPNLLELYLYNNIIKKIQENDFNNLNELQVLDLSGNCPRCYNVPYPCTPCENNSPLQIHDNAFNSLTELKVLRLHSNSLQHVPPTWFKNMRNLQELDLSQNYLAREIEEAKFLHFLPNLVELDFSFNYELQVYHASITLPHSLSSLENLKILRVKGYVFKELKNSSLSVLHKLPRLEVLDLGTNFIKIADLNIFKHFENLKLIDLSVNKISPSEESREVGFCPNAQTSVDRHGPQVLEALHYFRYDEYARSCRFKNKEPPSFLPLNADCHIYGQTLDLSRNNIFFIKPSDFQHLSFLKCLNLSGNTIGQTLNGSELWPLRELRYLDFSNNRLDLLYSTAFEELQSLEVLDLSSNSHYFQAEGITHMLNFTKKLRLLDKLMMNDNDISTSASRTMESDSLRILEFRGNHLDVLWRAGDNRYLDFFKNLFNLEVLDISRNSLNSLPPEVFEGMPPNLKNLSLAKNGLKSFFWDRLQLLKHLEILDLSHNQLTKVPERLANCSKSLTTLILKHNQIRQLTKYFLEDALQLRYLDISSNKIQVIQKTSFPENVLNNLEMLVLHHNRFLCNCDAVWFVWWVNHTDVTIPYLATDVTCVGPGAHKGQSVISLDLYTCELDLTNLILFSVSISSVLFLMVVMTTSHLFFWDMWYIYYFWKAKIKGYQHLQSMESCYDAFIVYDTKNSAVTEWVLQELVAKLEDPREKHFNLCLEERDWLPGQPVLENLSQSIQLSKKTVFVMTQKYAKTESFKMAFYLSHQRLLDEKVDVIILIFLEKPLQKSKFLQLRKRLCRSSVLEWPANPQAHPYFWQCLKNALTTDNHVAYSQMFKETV
Briefly: HEK293-mouseTLR7 SEAP reporter assay (Example 8). The following applies: HEK293-mTLR7 SEAP reporter cells, 24 hrs. How it is done: as §1, §2, §3

Another experiment concerns the target T3, human TLR7 (Homo sapiens, UniProt Q9NYK1).
T3 construct: host or cells: HEK293
T3 sequence (Q9NYK1 27-1049): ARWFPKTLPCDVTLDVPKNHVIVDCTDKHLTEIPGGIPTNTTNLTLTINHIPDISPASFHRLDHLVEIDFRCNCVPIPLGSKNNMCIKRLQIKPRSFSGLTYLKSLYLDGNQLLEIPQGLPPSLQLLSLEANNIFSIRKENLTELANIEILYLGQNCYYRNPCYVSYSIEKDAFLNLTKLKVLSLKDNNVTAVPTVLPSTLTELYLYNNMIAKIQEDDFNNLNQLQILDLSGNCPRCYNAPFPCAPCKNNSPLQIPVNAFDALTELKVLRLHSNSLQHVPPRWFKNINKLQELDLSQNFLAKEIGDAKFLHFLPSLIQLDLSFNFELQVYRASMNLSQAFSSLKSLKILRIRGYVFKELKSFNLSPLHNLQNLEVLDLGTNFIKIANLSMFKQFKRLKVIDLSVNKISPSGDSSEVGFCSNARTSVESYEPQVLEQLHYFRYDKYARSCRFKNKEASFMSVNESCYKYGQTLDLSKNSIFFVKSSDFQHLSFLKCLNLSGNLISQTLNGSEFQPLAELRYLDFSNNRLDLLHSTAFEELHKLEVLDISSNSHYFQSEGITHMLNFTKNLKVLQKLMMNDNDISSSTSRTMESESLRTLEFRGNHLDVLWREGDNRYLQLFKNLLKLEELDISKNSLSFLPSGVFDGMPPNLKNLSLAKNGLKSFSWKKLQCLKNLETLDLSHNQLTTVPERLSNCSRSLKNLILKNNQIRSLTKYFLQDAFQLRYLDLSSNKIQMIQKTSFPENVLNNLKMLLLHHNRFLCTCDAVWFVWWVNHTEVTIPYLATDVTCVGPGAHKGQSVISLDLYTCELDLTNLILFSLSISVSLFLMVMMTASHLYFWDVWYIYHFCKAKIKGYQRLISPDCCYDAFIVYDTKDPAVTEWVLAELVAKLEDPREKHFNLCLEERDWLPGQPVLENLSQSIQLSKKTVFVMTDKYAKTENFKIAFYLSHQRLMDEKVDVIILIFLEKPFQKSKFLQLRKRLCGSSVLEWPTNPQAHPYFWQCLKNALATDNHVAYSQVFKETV
The experiment in a line: HEK293-humanTLR7 SEAP reporter assay (Example 8). Particulars: HEK293-hTLR7 SEAP reporter cells, 24 hrs. How it is done: as §1, §2, §3

`CCCCCNc1nc(N)nc2ccn(Cc3ccc(CN4CC5(C4)CN(C(=O)OC(C)(C)C)CCO5)cc3OC)c12` [Compound 1.7, tert-butyl 2-[[4-[[2-amino-4-(pentylamino)pyrrolo[3,2-d]pyrimidin-5-yl]methyl]-3-methoxy-phenyl]methyl]-5-oxa-2,8-diazaspiro[3.5]nonane-8-carboxylate]: the EC50 on human TLR8 was greater than 5000 nM; on mouse TLR7, 6.7 nM; on human TLR7, 0.1 nM.

With `CNC1CN(Cc2ccc(Cn3ccc4nc(N)nc(NCc5nocc5C)c43)c(OC)c2)C1` [Compound 5], the EC50 on human TLR8 is greater than 5000 nM; on human TLR7, 1010 nM.

`CNC1CN(Cc2ccc(Cn3ccc4nc(N)nc(NCc5cc(C)on5)c43)c(OC)c2)C1` [Compound 6, 5-(2-methoxy-4-((3-(methylamino)azetidin-1-yl)methyl)benzyl)-N4-((5-methylisoxazol-3-yl)methyl)-5H-pyrrolo[3,2-d]pyrimidine-2,4-diamine]: the EC50 at human TLR8, on mouse TLR7 and on human TLR7 was greater than 5000 nM in each case.

In the case of `CCCCCNc1nc(N)nc2ccn(Cc3ccc(CN4CC(N)C4)cc3OC)c12` [Compound 13, 5-(4-((3-aminoazetidin-1-yl)methyl)-2-methoxybenzyl)-N4-pentyl-5H-pyrrolo[3,2-d]pyrimidine-2,4-diamine], the values for the EC50 at human TLR8, at mouse TLR7 and on human TLR7 were 374 nM, 2.7 nM and 0.5 nM, respectively.

For `CCCCCNc1nc(N)nc2ccn(Cc3ccc(CN4CCC5(CCNCC5)CC4)cc3OC)c12` [compound 7], the EC50 on human TLR8 was greater than 5000 nM; at mouse TLR7, 112 nM; on human TLR7, 48.8 nM.

For `CCCCCNc1nc(N)nc2ccn(Cc3ccc(CN4CC5(CCNCC5)C4)cc3OC)c12` [compound 8], the EC50 on human TLR8 is greater than 5000 nM; at mouse TLR7, 17.6 nM; at human TLR7, 16.5 nM.

On to `CCCCCNc1nc(N)nc2ccn(Cc3ccc(CN4CC5(CNC5)C4)cc3OC)c12` [compound 9], for which the EC50 worked out at 1140 nM at human TLR8, 16.2 nM at mouse TLR7 and 13.4 nM on human TLR7.

Regarding `CCCCCNc1nc(N)nc2ccn(Cc3ccc(CN4CC(C5CCNCC5)C4)cc3OC)c12` [compound 11], the EC50 at human TLR8 was greater than 5000 nM; on mouse TLR7, 222 nM; at human TLR7, 92.3 nM.

Take `CCCCCNc1nc(N)nc2ccn(Cc3ccc(CN4CCC(c5nnc6n5CCNC6)CC4)cc3OC)c12` [compound 12]: the EC50 on human TLR8 is greater than 5000 nM; on human TLR7 it was 370 nM.

In the case of `CCCCCNc1nc(N)nc2ccn(Cc3ccc(CN4CC5CCCC(C4)NC5)cc3OC)c12` (stereo not shown) [compound 14], the EC50 on human TLR8 is greater than 5000 nM; at mouse TLR7 it was 322 nM; at human TLR7, 108 nM.

In the case of `CCCCCNc1nc(N)nc2ccn(Cc3ccc(CN4CC5CCC4CN5)cc3OC)c12` (stereo not shown) [compound 15], the EC50 is greater than 5000 nM on human TLR8, 24.6 nM at mouse TLR7 and 4.8 nM on human TLR7.
